Measured values reported in patent US20250034200A1, “Prodrugs of Neurosteroid Analogs and Uses Thereof” (priority 2021, published 2025).
Counter-ions that a name gives are not always drawn. Like-named read-outs stand apart in the source and are kept apart here.

Legend:
[1] = male, Sprague Dawley, rat, in vivo
Method: Test System—Healthy male Sprague Dawley rats (8-12 weeks old) weighing between 200 to 250 g were procured from Global, India. […] Temperature and humidity were maintained at 22±3° C. and 30-70%, respectively and illumination was controlled to give a sequence of 12 h light and 12 h dark cycle. Temperature and humidity were recorded by auto-controlled data logger system. All the animals were provided with laboratory rodent diet (Envigo Research private Ltd, Hyderabad). Reverse osmosis water treated with ultraviolet light was provided ad libitum.
Design—Rats (n=3 per treatment group, serial sampling) were administered a solution of either normal saline vehicle or test compound in normal saline at 2 mg/kg (IV) or 10 mg/kg (IM) with a dosing volume of 5 mL/kg (IV) or 1 mL/kg (IM).
Sample Collection—Blood samples (approximately 60 μL) were collected under light isoflurane anesthesia (Surgivet®) from retro orbital plexus from a set of three rats at 0.08, 0.25, 0.5, 1, 2, 4, 6, 8 and 10 h (IV) or 0.25, 0.5, 1, 2, 4, 6, 8 and 10 h (IM). Immediately after blood collection, plasma was harvested by centrifugation 4000 rpm, 10 min at 40° C. and samples were stored at −70±10° C. until bioanalysis.
Data Analysis—Concentrations of the test compound and its parent compound, progesterone C20-oxime, in rat plasma were determined by fit-for-purpose LC-MS/MS method by Sai Life Sciences. […] Cmax represents the mean observed maximum concentration of analyte. Tmax represents the average time at observed Cmax. Areas under the curve (AUC0-last) were calculated via the linear trapezoidal rule using GraphPad Prism v9.

[2] = Aqueous stability assay (HPLC, pseudo first-order half-life); format: physicochemical; settings: DPBS pH 7.0-7.3, 1 mg/mL, room temperature; for half-life / half-life at 1 mg/mL: buffer, read-out: PBS t1/2 (converted)
Method: Aqueous stability experiments were performed on an Agilent 1100 HPLC equipped with an Agilent 1200 autosampler. HPLC grade solvents were exclusively used during analysis, with acetonitrile being purchased from Sigma Aldrich, and water and formic acid provided by Fisher Scientific. […]
[…] All mixtures were then sonicated for 5 min or stirred until complete dissolution was achieved. Any precipitate observed in sample solutions was filtered with a PTFE syringe filter prior to analysis. Immediately after sample preparation, injection by the HPLC autosampler was performed, which was recorded as the initial time point (t=0 min). Samples were then kept in the autosampler at room temperature and injected at designated intervals without additional filtration or sample modification. Next, the area of the parent peak in each chromatogram was determined by automated integration in the Agilent ChemStation software. Pseudo first-order half-lives were then ascertained by calculating the percent of the parent compound remaining after each time point. Plots of time (x-axis) vs. the natural logarithm of percent parent remaining (y-axis) were subsequently constructed to determine the slope. Finally, the aqueous stability was evaluated using the following equation:
The HPLC conditions were as follows: injection volume, 1 μL; column temperature: 40° C.; detector: 254 nm; stationary phase: Zorbax Eclipse XDB-C18 (4.6×150 mm, 5 μm); flow rate: 1 mL/min; mobile phase: 80-95% acetonitrile in H2O (0.1% formic acid).

[3] = Plasma stability assay (LC-MS/MS); format: in vitro ADME; settings: human plasma, 37° C., 3 μM; for half-life at 3 µM: read-out: Plasma t1/2 (converted)
Method: Procaine and procainamide were purchased from Sigma Aldrich. HPLC-grade acetonitrile, water, methanol, and formic acid were purchased from Fisher Scientific. Human plasma (Cat. No. […]2N) was obtained from BIOIVT, and PBS (1×Dulbecco's, pH 7.4) from Thermo Fisher Scientific.
Test compounds were dissolved in DMSO to make a stock solution of 10 mM and then diluted to 500 μM in buffer or 70% methanol. Human plasma was thawed at ambient temperature and aliquoted (994.0 μL) to a 1.5 mL Eppendorf tube in duplicates (vials A and B) for each compound. The plasma was incubated at 37° C. for 10 min in an incubator shaker at 150 RPM; the reaction was initiated by addition of the test compound (6.0 μL), followed by vortex mixing. The total reaction volume was 1000 μL, the final organic solvent concentrations were […] (when 70% methanol was used for dilution) and 0.03% DMSO, and the final concentration of the test compound was 3 μM. The spiked plasma samples were incubated at 37° C. for 4 h. The reactions were terminated at time point 0, 15, 30, 60, 120, 180, and 240 min by taking a 100 μL aliquot from the test incubation mixture and immediately quenching it by adding it into ice-cold acetonitrile or methanol (150 μL) containing 2 μM internal standard (ISTD), followed by vortex mixing. The ISTD was d5-7-ethoxy coumarin. The samples were then centrifuged at 15000 RPM for 25 min at 4° C., and the supernatant was transferred to an LC-MS vial for analysis by LC-MS/MS. Each time point was tested in duplicates followed by in-between blank washes to avoid carryover and to equilibrate the column.
Procaine (poor plasma stability) and procainamide (good plasma stability) were used as controls at the same concentration as that of the test compound. These controls were run in parallel to test the assay's competency. Matrix blank was prepared by adding acetonitrile or methanol containing ISTD to plasma samples without any of the test or control compounds. Also, an additional control sample was made to simply monitor compound degradation in PBS buffer.
Below is a summary of samples prepared for a given test compound in a typical plasma stability assay: • Test compound (TC): 994 μL human plasma+6.0 μL TC (Vial A) 994 μL human plasma+6.0 μL TC (Vial B) • Control: 596 μL human plasma+3.6 μL (procaine+procainamide) • Blank matrix: 500 μL PBS buffer+100 μL human plasma • Additional control: 142 μL PBS buffer+0.9 μL TC • Quenching mixture: 150 μL acetonitrile or methanol with ISTD (2 μM) • Final volume: 250 μL (100 μL from the incubation mixture+150 μL quenching mixture; final ISTD conc.: 1.2 μM)
LC-MS/MS analysis was performed using Agilent 1260 Infinity II HPLC, coupled with an Agilent G6460 triple quadrupole mass spectrometer (Agilent Technologies, USA). The data were acquired and processed using the Agilent 6460 Quantitative Analysis data processing software.
Reverse-phase HPLC separation for each compound was achieved on an Agilent InfinityLab Poroshell 120 C18 column (2.1×50 mm, 2.7 μm) with a mobile phase composed of methanol/water with 0.1% formic acid or acetonitrile/water with 0.1% formic acid at a flow rate of 0.5 mL/min. Each method was developed in the presence of the ISTD. The column temperature was maintained at 40° C. The detection was operated using the Agilent Jet-Stream electrospray positive ionization under the multiple reaction monitoring mode. The mass spec conditions were as follows: dwell time 100 ms; gas flow 10 L/min; nebulizer pressure 45 psi; delta EMV 200 V.
Plots of time (x-axis) vs. the natural logarithm of percent parent remaining (y-axis) were subsequently constructed to determine the slope. Finally, the plasma stability was evaluated using the following equation: […]

[4] = Nephelometry (aqueous solubility); format: physicochemical; settings: DPBS with 1% DMSO, aqueous buffer, kinetic from dmso stock, DPBS pH 7.0-7.3, 1% DMSO, 25° C.
Description: Well A1 of the plate contained 100% DMSO.

| SMILES | half-life [2] [h] | Plasma % rmn at 2 h [3] [%] | solubility at 90 min [4] [µM] | PBS t1/2 [2] [h] | also measured |
| --- | --- | --- | --- | --- | --- |
| C/C(=N/OCOP(=O)([O-])[O-])[C@H]1CC[C@H]2[C@@H]3CCC4=CC(=O)CC[C@]4(C)[C@H]3CC[C@]12C.[Na+].[Na+] [EIDD-1723] |  |  |  |  | increase in the dose-corrected exposure to parent progesterone C20-oxime, IM compared to the IV route [1]: 3 fold; Parent AUClast ([1]; im, 10 mg/kg): 753 ± 29 ng·h/mL; Parent AUClast ([1]; iv, 2 mg/kg): 48 ± 6 ng·h/mL; Parent Cmax ([1]; iv, 2 mg/kg): 219 ng/mL |
| CCNCCN(CC)C(=O)O/N=C(\C)[C@H]1CC[C@H]2[C@@H]3CCC4=CC(=O)CC[C@]4(C)[C@H]3CC[C@]12C.Cl [54a, (E)-2-((8S,9S,10R,13S,14S,17S)-10,13-dimethyl-3-oxo-2,3,6,7,8,9,10,11,12,13,14,15,16,17-tetradecahydro-1H-cyclopenta[a]phenanthren-17-yl)-6-ethyl-4-oxa-3,6,9-triazaundec-2-en-5-one hydrochloride] | > 24 | 71 | > 750 |  |  |
| CNCCN(CCO)C(=O)O/N=C(\C)[C@H]1CC[C@H]2[C@@H]3CCC4=CC(=O)CC[C@]4(C)[C@H]3CC[C@]12C [32c, 2-((((((E)-1-((8S,9S,10R,13S,14S,17S)-10,13-dimethyl-3-oxo-2,3,6,7,8,9,10,11,12,13,14,15,16,17-tetradecahydro-1H-cyclopenta[a]phenanthren-17-yl)ethylidene)amino)oxy)carbonyl)(2-hydroxyethyl)amino)-N-methylethan-1-aminium chloride] |  |  | > 500 |  | half-life at 1 mg/mL [2]: 24.8 ± 1.1 h; half-life at 3 µM [3]: 1.7 h |
| C/C(=N\OC(=O)N(CCNC(C)C)C(C)C)[C@H]1CC[C@H]2[C@@H]3CCC4=CC(=O)CC[C@]4(C)[C@H]3CC[C@]12C.Cl [54b, (E)-2-((8S,9S,10R,13S,14S,17S)-10,13-dimethyl-3-oxo-2,3,6,7,8,9,10,11,12,13,14,15,16,17-tetradecahydro-1H-cyclopenta[a]phenanthren-17-yl)-6-isopropyl-10-methyl-4-oxa-3,6,9-triazaundec-2-en-5-one hydrochloride] | > 24 | 84 | > 500 |  |  |
| CNCCN(C(=O)O/N=C(\C)[C@H]1CC[C@H]2[C@@H]3CCC4=CC(=O)CC[C@]4(C)[C@H]3CC[C@]12C)C1CCCC1.O=C(O)C(F)(F)F [53d, (E)-5-cyclopentyl-9-((8S,9S,10R,13S,14S,17S)-10,13-dimethyl-3-oxo-2,3,6,7,8,9,10,11,12,13,14,15,16,17-tetradecahydro-1H-cyclopenta[a]phenanthren-17-yl)-7-oxa-2,5,8-triazadec-8-en-6-one 2,2,2-trifluoroacetate] |  | 65 | > 750 | 10.70 ± 0.15 |  |
| CNCCN(C(=O)O/N=C(\C)[C@H]1CC[C@H]2[C@@H]3CCC4=CC(=O)CC[C@]4(C)[C@H]3CC[C@]12C)C(C)C.O=C(O)C(F)(F)F [53a, (E)-9-((8S,9S,10R,13S,14S,17S)-10,13-dimethyl-3-oxo-2,3,6,7,8,9,10,11,12,13,14,15,16,17-tetradecahydro-1H-cyclopenta[a]phenanthren-17-yl)-5-isopropyl-7-oxa-2,5,8-triazadec-8-en-6-one 2,2,2-trifluoroacetate] |  | 41 | > 750 | 19.72 ± 0.38 |  |
| CNCCN(C(=O)O/N=C(\C)[C@H]1CC[C@H]2[C@@H]3CCC4=CC(=O)CC[C@]4(C)[C@H]3CC[C@]12C)C1CC1.O=C(O)C(F)(F)F [53b, (E)-5-cyclopropyl-9-((8S,9S,10R,13S,14S,17S)-10,13-dimethyl-3-oxo-2,3,6,7,8,9,10,11,12,13,14,15,16,17-tetradecahydro-1H-cyclopenta[a]phenanthren-17-yl)-7-oxa-2,5,8-triazadec-8-en-6-one 2,2,2-trifluoroacetate] |  | 45 | > 750 | 28.16 ± 0.04 |  |
| C/C(=N\OC(=O)N(C)CCNCCO)[C@H]1CC[C@H]2[C@@H]3CCC4=CC(=O)CC[C@]4(C)[C@H]3CC[C@]12C [32d, 2-((((((E)-1-((8S,9S,10R,13S,14S,17S)-10,13-dimethyl-3-oxo-2,3,6,7,8,9,10,11,12,13,14,15,16,17-tetradecahydro-1H-cyclopenta[a]phenanthren-17-yl)ethylidene)amino)oxy)carbonyl)(methyl)amino)-N-(2-hydroxyethyl)ethan-1-aminium chloride] | 30.4 ± 5 |  | > 500 |  | Plasma t1/2 [3]: 2.8 h |
| CNCCN(CC(C)C)C(=O)O/N=C(\C)[C@H]1CC[C@H]2[C@@H]3CCC4=CC(=O)CC[C@]4(C)[C@H]3CC[C@]12C.O=C(O)C(F)(F)F [53e, (E)-9-((8S,9S,10R,13S,14S,17S)-10,13-dimethyl-3-oxo-2,3,6,7,8,9,10,11,12,13,14,15,16,17-tetradecahydro-1H-cyclopenta[a]phenanthren-17-yl)-5-isobutyl-7-oxa-2,5,8-triazadec-8-en-6-one 2,2,2-trifluoroacetate] | > 24 | 83 | > 750 |  |  |
| C/C(=N\OC(=O)N(CCO)CCNCCO)[C@H]1CC[C@H]2[C@@H]3CCC4=CC(=O)CC[C@]4(C)[C@H]3CC[C@]12C.Cl [54d, (E)-2-((8S,9S,10R,13S,14S,17S)-10,13-dimethyl-3-oxo-2,3,6,7,8,9,10,11,12,13,14,15,16,17-tetradecahydro-1H-cyclopenta[a]phenanthren-17-yl)-11-hydroxy-6-(2-hydroxyethyl)-4-oxa-3,6,9-triazaundec-2-en-5-one hydrochloride] |  | 32 | > 750 | 28.79 ± 3.16 |  |
| C/C(=N\OC(=O)NC[C@@H]1CCCN1)[C@H]1CCC2[C@@H]3CCC4=CC(=O)CC[C@]4(C)[C@H]3CC[C@@]21C (stereo partly drawn) [32g, (8S,9S,10R,13S,17S)-10,13-dimethyl-17-((E)-1-((((((S)-pyrrolidin-2-yl)methyl)carbamoyl)oxy)imino)ethyl)-1,2,6,7,8,9,10,11,12,13,14,15,16,17-tetradecahydro-3H-cyclopenta[a]phenanthren-3-one hydrochloride] |  |  | > 750 |  | half-life at 1 mg/mL ([2]; d (days)): 396 h; half-life at 3 µM [3]: 9.6 h |
